“Also recorded” adds a separate entry of the source.
Experiments:
[1] = system: glomerular endothelial cells; experiment: Cell viability (PrestoBlue), glomerular endothelial cells; assay type: cell-based, murine; details: D-form ALW 1 µg/ml, 2 days
Experimental: (§1) By using a HiTrap purification kit (GE Healthcare, Port Washington, NY, USA) ([8]), anti-dsDNA IgG was purified from the culture supernatants of murine WJ31 hydridoma clone (IgG2a; Jieqing Biotech). Control murine IgG (IgG2a; Jieqing Biotech) was verified by enzyme-linked immunosorbent assay (ELISA) to determine that there was no binding to DNA antigen (data not shown). Cells were starved routinely before the 2-day stimulation of anti-dsDNA IgG or control IgG (2 µg/ml). In some experiments, mesangial cells were stimulated with anti-dsDNA IgG (2 µg/ml) that was premixed with D-form (ALWPPNLHAWVP) or scrambled (PLPHNPWVLAAW) ALW peptide (1 µg/ml). The cell viability of three types of cells was measured using PrestoBlue viability reagent (Life Technologies, Carlsbad, CA, USA).
Mesangial Glomerular Tubular cells endothelial epithelial
Supplementary Figure S7. Cell viability assays of kidney cells. (A) Murine cells were cultured in vitro, and received control or anti-dsDNA IgG stimulation (2 µg/ml, 2 days). (B) Similarly, these cells were also stimulated with scrambled or D-form ALW peptide (1 µg/ml, 2 days). The cell viability was measured using PrestoBlue viability reagent. Data were from three independent experiments. Data points and error bars […]
(also on this page, place not known: µ g/ml,2 µ g/ml,2 Cell viability (%) Cell viability (%))

[2] = system: SOCS1, JAK2 and STAT1 in mesangial cells; experiment: SOCS1/JAK2/STAT1 proteins (IF, Western blotting), mesangial cells; assay type: cell-based, murine; details: anti-dsDNA IgG 2 µg/ml premixed with peptide 1 µg/ml, 2 days
Experimental: Immunofluorescence was carried out for both IgG deposition and SOCS1 expression in frozen sections. Routinely processed sections were incubated with rabbit anti-mouse SOCS1 and then fluorescein isothiocyanate (FITC)-conjugated goat anti-rabbit IgG (2 µg/ml; Southern Biotech, Birmingham, AL, USA) in order, or directly with goat anti-mouse IgG-FITC (Southern Biotech) alone. Sections were viewed under a digital fluorescent microscope (Carl Zeiss, Jena, Germany).
Immortal murine mesangial cells and glomerular endothelial cells (Jieqing Biotech, Wuhan, China) were cultured in RPMI 1640 medium supplemented with 10% fetal bovine serum ([8], [33]). Immortal murine proximal tubular epithelial cells (kindly provided by Dr. Cheng Pan, Wuhan University, China) were cultured in Dulbecco’s modified Eagle’s medium as described previously ([34]).
as §1
Fresh tissues and cell cultures were extracted for lysates with the addition of protease inhibitor cocktail (Thermo Scientific, Waltham, MA, USA). […] The band intensities were quantitated by ImageJ 1.61u software (National Institutes of Health, Bethesda, MD, USA) and normalized to β-actin values accordingly. The intensities of blank groups were set as 1 (baseline), and the relative intensities were calculated in other groups.

glomeruli of SCID mice = experiment: Glomerular IgG deposition (IHC and IF), SCID mice; assay type: in vivo; details: i.v., anti-dsDNA IgG mixed with D-form ALW before injection, n = 5, versus anti-dsDNA IgG alone
From the text: Renal biopsies were obtained from patients with LN (n = 7), who had serum positivity of anti-dsDNA IgG (Table S1 in Supplementary Material). The diagnosis of LN was made based on the histological features of renal biopsies. For normal human controls, sera and non-lesional tissues were taken from patients (n = 5) who underwent surgical nephrectomy due to renal cell carcinoma or renal rupture (Table S1 in Supplementary Material). There was no statistical difference in term of age between the LN patients and the controls (p > 0.05). […] The MRL/lpr and MRL/MpJ mice (female, 12 or 24 weeks old, n = 5 each group) as well as SCID mice (female, 8 weeks old, n = 5 each group) were bred in the animal facility of Xi’an Jiaotong University Health Science Center. Urine, sera, and renal tissues were harvested from MRL/lpr and MRL/MpJ mice. Proteinuria was quantitated by the Coomassie brilliant blue method ([32]). All data about MRL/lpr and MRL/MpJ mice referred to that at age of 24 weeks unless otherwise noted. These SCID mice received intravenous injections of anti-dsDNA or control IgG at a dose of 100 µg twice weekly, which lasted for 4 weeks (n = 5 each group). Then, both serum and kidney samples were collected from SCID mice. This study was carried out in accordance with the recommendations of the guidelines of the Hospital Research Ethics Committee with written informed consent from all subjects. […]

anti-dsDNA IgG = experiment: MALDI-TOF MS, catalysis of peptide by anti-dsDNA IgG; parameters: species or system murine; details: peptide 2 µg/ml with IgG (molar ratio = 1:5), 37°C, 30 min, triplicate, versus L-form ALW
Experimental: Matrix-assisted laser desorption/ionization–time of flight mass spectrometry was performed for identifying the sequences of peptide fragments. As described previously ([36]), an ABI 4800 Analyzer (AB Science, Foster City, CA, USA) was used for such analysis. The ALW (L-form or D-form) and KIR peptides (2 µg/ml) were mixed with anti-dsDNA IgG or control IgG (molar ratio = 1:5), respectively. The mixtures were incubated at 37°C for 30 min. Then, these samples were diluted in distilled water (1:100) and then mixed with the α-cyano-4-hydroxycinnamic acid matrix at a ratio of 1:1. Samples in triplicate were then loaded to the MALDI target. Mass spectrum was produced on 80 individual spectra of each spot.

kidneys of SCID mice = experiment: Renal mRNA levels by real-time PCR, SCID mice; assay type: in vivo; details: i.v.
From the text: Renal biopsies were obtained from patients with LN (n = 7), who had serum positivity of anti-dsDNA IgG (Table S1 in Supplementary Material). The diagnosis of LN was made based on the histological features of renal biopsies. For normal human controls, sera and non-lesional tissues were taken from patients (n = 5) who underwent surgical nephrectomy due to renal cell carcinoma or renal rupture (Table S1 in Supplementary Material). There was no statistical difference in term of age between the LN patients and the controls (p > 0.05). […] The MRL/lpr and MRL/MpJ mice (female, 12 or 24 weeks old, n = 5 each group) as well as SCID mice (female, 8 weeks old, n = 5 each group) were bred in the animal facility of Xi’an Jiaotong University Health Science Center. Urine, sera, and renal tissues were harvested from MRL/lpr and MRL/MpJ mice. Proteinuria was quantitated by the Coomassie brilliant blue method ([32]). All data about MRL/lpr and MRL/MpJ mice referred to that at age of 24 weeks unless otherwise noted. These SCID mice received intravenous injections of anti-dsDNA or control IgG at a dose of 100 µg twice weekly, which lasted for 4 weeks (n = 5 each group). Then, both serum and kidney samples were collected from SCID mice. This study was carried out in accordance with the recommendations of the guidelines of the Hospital Research Ethics Committee with written informed consent from all subjects. All subjects gave written informed consent in accordance with the Declaration of Helsinki. The protocol was approved by the Hospital Research Ethics Committee.
As previously described ([8]), total RNA was extracted from fresh tissues or cultured cells, followed by reverse transcription. The 7900HT Fast PCR System (Applied Biosystems, Carlsbad, CA, USA) was used for PCR, and SYBR Green Master Mixes (Invitrogen, Grand Island, NY, USA) was used as fluorescent dye. The sequences of primers (Jieqing Biotech) are listed in Table S2 in Supplementary Material.

[3] = D-form ALW plus anti-dsDNA IgG, n = 5, versus anti-dsDNA IgG alone
[4] = anti-dsDNA IgG pre-mixed with D-form ALW, n = 5

Sequence: ALWPPNLHAWVP [D-form ALW, ALW peptide with two terminal residues A and P replaced with D-form ones]
- cell viability [1]: no changes
- JAK2 protein, ALW plus anti-dsDNA IgG (consistent with mRNA decrease) [2]: consistent changes
- SOCS1 protein level, ALW plus anti-dsDNA IgG [2]: increased
- STAT1 protein, ALW plus anti-dsDNA IgG (consistent with mRNA decrease) [2]: consistent changes
- glomerular IgG deposition, ALW plus anti-dsDNA IgG (glomeruli of SCID mice): less IgG deposition; also recorded: significant reduction
- resistance to catalysis by anti-dsDNA IgG (anti-dsDNA IgG): enhanced resistance to catalysis
- renal JAK2 mRNA level, ALW plus anti-dsDNA IgG (kidneys of SCID mice; [3]): reduced
- renal SOCS1 mRNA level, ALW plus anti-dsDNA IgG (kidneys of SCID mice; [3]): not affected
- renal STAT1 mRNA level, ALW plus anti-dsDNA IgG (kidneys of SCID mice; [3]): reduced
- renal PDGFB mRNA level, ALW plus anti-dsDNA IgG (kidneys of SCID mice; [4]): substantial decrease
- renal TGF-β1 mRNA level, ALW plus anti-dsDNA IgG (kidneys of SCID mice; [4]): substantial decrease
- renal TWEAK mRNA level, ALW plus anti-dsDNA IgG (kidneys of SCID mice; [4]): substantial decrease

From publication PMC5449454, “Anti-Double-Stranded DNA IgG Participates in Renal Fibrosis through Suppressing the Suppressor of Cytokine Signaling 1 Signals” (Frontiers in Immunology, 2017)
